Measurements: patent publication US10981932B2, “Macrocyclic indole derivatives” (Bayer Aktiengesellschaft, priority 2016, dated 2021)

Tests used:
[1] = system: SUDHL5; test: Induction of caspase-3/7 activity (Caspase-Glo 3/7), SUDHL5; format: cell-based; conditions: Homo sapiens, SU-DHL-5, 3 h, caspase-3/7 induction, SUDHL5 cells, 3 h treatment; median
Outline: (§1)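 Caspase-Glo 3/7 luminescence measured after 3 h compound exposure at 37 °C in SUDHL10 and SUDHL5 cells. EC50 values come from background-corrected signals, with curve bottom set to 1 and plateau set to maximal induction by the reference compound.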

[2] = biological target: MCL-1 (Homo sapiens, UniProt Q07820); test: Protein-protein interaction assay MCL-1/Noxa BH3 peptide (MCL-1 assay), TR-FRET; format: binding; conditions: MBP-MCL-1 / Noxa BH3-derived peptide, median
Outline: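 MBP-MCL-1 (1 nM final) was preincubated 10 min at 22 °C with compounds (11 concentrations, 0.1 nM–20 μM, duplicates) in Tris pH 7 buffer with NaCl, KF, Tween-20, DTT and BGG. After 1 h at 22 °C in the dark plus overnight at 4 °C, anti-MBP Eu-cryptate/streptavidin-XL665 TR-FRET was read; IC50 came from a 4-parameter fit.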

[3] = system: SUDHL10; test: Induction of caspase-3/7 activity (Caspase-Glo 3/7), SUDHL10; format: cell-based; conditions: Homo sapiens, SU-DHL10, 3 h, caspase-3/7 induction, SUDHL10 cells, 3 h treatment; median
Outline: as §1

[4] = system: SUDHL5; test: Induction of cytotoxicity (CellTiter-Glo, 5 h), SUDHL5; conditions: Homo sapiens, SU-DHL-5, 5 h, read-out: Cytotox SUDHL5 [M] (median), SUDHL5 cells, cytotoxicity induction, CellTiter-Glo, 5 h incubation, median
[5] = system: SUDHL10; test: Anti-proliferative effect (CellTiter-Glo, 72 h), SUDHL10; format: cell-based; conditions: Homo sapiens, SU-DHL10, 72 h, SUDHL10 cells, antiproliferation, 72 h incubation, median, read-out: Antiproli SUDHL10 [M] (median)
Outline: (§2)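 Anti-proliferative activity is derived from ATP-based luminescence (CellTiter-Glo) in cells exposed to compound for 72 h at 37 °C, set against a time zero plate read at seeding.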

[6] = system: SUDHL10; test: Induction of cytotoxicity (CellTiter-Glo, 5 h), SUDHL10; conditions: Homo sapiens, SU-DHL10, 5 h, read-out: Cytotox SUDHL10 [M] (median), SUDHL10 cells, cytotoxicity induction, CellTiter-Glo, 5 h incubation, median
[7] = system: A2780; test: Anti-proliferative effect (CellTiter-Glo, 72 h), A2780; format: cell-based; conditions: Homo sapiens, A2780, 72 h, A2780 cells, median, read-out: IC50 antiproliferation assay A2780 [M] (median)
Outline: as §2

[8] = system: OPM2; test: Anti-proliferative effect (CellTiter-Glo, 72 h), OPM2; format: cell-based; conditions: Homo sapiens, OPM-2, 72 h, OPM2 cells, median, read-out: IC50 antiproliferation assay OPM2 [M] (median)
Description: Assessment of the Anti-Proliferative Effect of Compounds in Different Cell Lines
The impact of compounds on the proliferation of different cell lines was assessed using the CellTiter-Glo® Luminescent Cell Viability reagent from Promega (G7573). Of note, SUDHL10 and SUDHL5 (DLBCL), NCI-H929 (Multiple Myeloma), A2780 (ovarian carcinoma) as well as MV-4-11(AML) cells are sensitive to MCL-1 inhibition.
In parallel, cells were plated in a reference (day 0) plate for time zero determination.
Rim wells were excluded. The cells were incubated for 72 h hours in a humidified incubator at 37° C. The day 0 plate was measured by adding 30 μl/well of CTG solution (CellTiter-Glo® Luminescent Cell Viability reagent, Promega G7573) to time zero wells in the reference plate followed by a 10 minutes incubation and luminescence reading at 0.1 ms, using the PHERAstar FS microplate reader (BMG Labtech).
After 72 h incubation, the treated plates were measured in the same way as the day 0 plate mentioned above.

MCL-1, sequence (Q07820 whole entry): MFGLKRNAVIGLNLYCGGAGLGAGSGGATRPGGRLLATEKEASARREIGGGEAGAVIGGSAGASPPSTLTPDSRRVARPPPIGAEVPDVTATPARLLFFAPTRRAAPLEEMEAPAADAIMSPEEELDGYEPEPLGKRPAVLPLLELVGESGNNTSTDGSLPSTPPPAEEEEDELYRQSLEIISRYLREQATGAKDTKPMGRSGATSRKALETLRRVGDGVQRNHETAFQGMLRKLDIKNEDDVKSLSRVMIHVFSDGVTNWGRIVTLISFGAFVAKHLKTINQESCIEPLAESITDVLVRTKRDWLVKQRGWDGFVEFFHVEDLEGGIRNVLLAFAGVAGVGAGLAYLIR

| Compound | EC50 [1] [µM] | IC50 [2] [µM] | EC50 [3] [µM] | IC50 [4] [M] | IC50 [5] [M] | IC50 [6] [M] | IC50 [7] [M] | IC50 [8] [M] |
| --- | --- | --- | --- | --- | --- | --- | --- | --- |
| Cc1nn(C)c2c1-c1cccc3c(CCCOc4cccc5ccccc45)c(C(=O)O)n(c13)CCN(c1ccccc1)C2 (racemic) [Example 1-101, (rac)-8,10-Dimethyl-1-[3-(1-naphthyloxy)propyl]-6-phenyl-5,6,7,8-tetrahydro-4H-pyrazolo[3′,4′:6,7][1,4]diazonino[8,9,1-hi]indole-2-carboxylic Acid] | > 33 | 0.319 | > 33 | > 3.3e-05 | 1.05e-05 | > 3.3e-05 | 1.97e-05 | > 3.3e-05 |
| CN1CCCCn2c(C(=O)O)c(CCCOc3cccc4ccccc34)c3cccc(c32)-c2cnn(C)c2C1 (racemic) [Example 127, (rac)-1,14-dimethyl-7-[3-(naphthalen-1-yloxy)propyl]-10,11,12,13,14,15-hexahydro-1H-pyrazolo[3′,4′:8,9][1,6]diazacycloundecino[10,11,1-hi]indole-8-carboxylic Acid] | > 33 | 0.0144 | > 33 | > 3.3e-05 | 9.32e-06 | > 3.3e-05 | 2.44e-05 | > 3.3e-05 |
| Cc1nn(C)c2c1-c1cccc3c(CCCOc4cccc5c4CCCC5)c(C(=O)O)n(c13)CCCOC2 (racemic) [Example 005, (rac)-9,11-dimethyl-1-[3-(5,6,7,8-tetrahydronaphthalen-1-yloxy)propyl]-5,6,8,9-tetrahydro-4H-pyrazolo[4′,3′:8,9][1,5]oxazecino[7,6,5-hi]indole-2-carboxylic Acid] | > 33 | 0.066 | > 33 | > 3.3e-05 | > 3.3e-05 | > 3.3e-05 | > 3.3e-05 | > 3.3e-05 |
| COc1cc2cc(c1)-c1cccc3c(CCCOc4cccc5c4CCCC5)c(C(=O)O)n(c13)CCCCCO2 (racemic) [Example 116, (rac)-12-Methoxy-1-[3-(5,6,7,8-tetrahydronaphthalen-1-yloxy)propyl]-5,6,7,8-tetrahydro-4H-10,14-(metheno)[1,7]oxazacyclotetradecino[9,8,7-hi]indole-2-carboxylic Acid] | > 33 | 8.28 | > 33 | > 3.3e-05 | > 3.3e-05 | > 3.3e-05 | 2.21e-05 | 1.79e-05 |
| CC(C)OCc1nn(C)c2c1-c1cccc3c(CCCOc4cccc5ccccc45)c(C(=O)O)n(c13)CCCN(C)C2 (racemic) [Example 1-70, (rac)-7,9-dimethyl-1-[3-(naphthalen-1-yloxy)propyl]-11-[(propan-2-yloxy)methyl]-4,5,6,7,8,9-hexahydropyrazolo[3′,4′:78][1,5]diazecino[9,10,1-hi]indole-2-carboxylic Acid] | > 33 | 0.02 | > 33 | > 3.3e-05 | 1.31e-05 | 2.78e-05 | 1.82e-05 | 1.22e-05 |
